Results: PMC3076504 (2011)

Biological target: Isocitrate lyase (ICL) (Mycobacterium tuberculosis, UniProt P9WKK7)
Assay: colorimetric glyoxylate-phenylhydrazone assay at […] nm, dose response
Format: biochemical

Chain of Isocitrate lyase (ICL) (P9WKK7 whole entry): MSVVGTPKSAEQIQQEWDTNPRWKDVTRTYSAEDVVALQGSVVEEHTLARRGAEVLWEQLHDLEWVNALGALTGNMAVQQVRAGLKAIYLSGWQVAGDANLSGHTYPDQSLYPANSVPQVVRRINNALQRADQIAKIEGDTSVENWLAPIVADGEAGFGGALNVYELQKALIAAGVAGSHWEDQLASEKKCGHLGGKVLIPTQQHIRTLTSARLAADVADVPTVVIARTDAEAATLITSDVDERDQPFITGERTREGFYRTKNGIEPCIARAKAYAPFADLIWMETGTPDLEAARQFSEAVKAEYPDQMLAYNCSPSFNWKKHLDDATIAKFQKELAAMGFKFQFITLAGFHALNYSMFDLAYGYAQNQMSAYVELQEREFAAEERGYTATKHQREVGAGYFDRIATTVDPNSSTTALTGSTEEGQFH

## O=C(O)C(=O)O [oxalic acid]
  IC50: 13 mM
